We go through 21 molecules from the Deep4Chem optical property database.

The first data set is described as follows: solvent given as SMILES. The conditions noted are these: in C1CCCCC1.
Regarding `Oc1ccc2ccccc2c1-c1nc(-c2ccccc2)c2ccccn12`, the emission maximum turned out to be 407 nm.

Molecule `CC(C)CCCCN1CCc2c1ccc1c3c(ccc21)CCCC3=O` came in with an emission maximum of 507 nm.

Molecule `CN(C)CCNCc1c2ccccc2cc2ccccc12` registered an emission maximum of 388 nm.

As to `COc1ccc(C2=C(c3ccc(OC)cc3)C(C)(C)c3cc(OC)ccc32)cc1`, the emission maximum is listed as 398 nm.

For the molecule `COc1ccc2c3ccc(OC)cc3n(-c3cc(Cl)c([C](c4c(Cl)cc(Cl)cc4Cl)c4c(Cl)cc(Cl)cc4Cl)c(Cl)c3)c2c1`, the emission maximum amounted to 638 nm.

Molecule `c1ccc(-c2nn(-c3ccccc3)c3nc4ccc(N(c5ccccc5)c5ccccc5)cc4cc23)cc1` displayed an emission maximum of 486.62 nm.

The data set is the same for the next values; noted with them: in C1CCOC1.
As to `CN(C)CCNCc1c2ccccc2cc2ccccc12`, the emission maximum worked out at 413 nm.

In turn, `Cc1ccc(-c2ccc(-c3ccc(-c4ccc(C)cc4)cc3/C(=C(/c3ccccc3)c3cc(-c4ccc(C)cc4)ccc3-c3ccc(-c4ccc(C)cc4)cc3)c3ccccc3)cc2)cc1` displayed an emission maximum of 498 nm.

`c1ccc(-c2nn(-c3ccccc3)c3nc4ccc(N(c5ccccc5)c5ccccc5)cc4cc23)cc1` yielded an emission maximum of 524.66 nm.

`CC(=O)c1ccc(-c2ccc3c(c2)C(=O)c2cc(-c4ccc(C(C)=O)cc4)ccc2-3)cc1` displayed an emission maximum of 375 nm.

`CCN(CC)c1ccc2cc(/C=C/C(=O)/C=C(O)/C=C/c3cc4ccc(N(CC)CC)cc4oc3=O)c(=O)oc2c1`: the emission maximum is on record as 568 nm.

With `Cc1cc(C)c([B-]2(c3c(C)cc(C)cc3C)[O+]=P(c3ccccc3)(c3ccccc3)c3cc(C#Cc4ccccc4)sc3-c3sc(C#Cc4ccccc4)cc32)c(C)c1`, the emission maximum is recorded as 498 nm.

`CCCCOc1cc2ccccc2c2c1oc1cc3ccccc3cc12` showed an emission maximum of 381 nm.

`CC1=[N+]2C(=C(c3ccccc3)c3ccc(/C=C/c4ccc(C(=C(c5ccccc5)c5ccccc5)c5ccccc5)cc4)n3[B-]2(F)F)C=C1` came in with an emission maximum of 610 nm.

The data set is the same for the next values; noted with them: in C1COCCO1.
With `Nc1ccc(C#Cc2ccc3ccc4ccc(C#Cc5ccc(N)cc5)c5ccc2c3c45)cc1`, the emission maximum was 476 nm.

`C(/C=C/c1ccc(-n2c3ccccc3c3ccccc32)cc1)=C\c1ccncc1` gave an emission maximum of 436 nm.

In turn, `CCN(CC)c1ccc2cc(/C=C/C(=O)/C=C(O)/C=C/c3cc4ccc(N(CC)CC)cc4oc3=O)c(=O)oc2c1` displayed an emission maximum of 561 nm.

Molecule `CN(C)c1ccc(C#Cc2ccc3ccc4ccc(C#Cc5ccc(N(C)C)cc5)c5ccc2c3c45)cc1` yielded an emission maximum of 491.8 nm.

`O=S(=O)(c1ccc(N2c3ccccc3Oc3ccccc32)cc1)c1ccc(N2c3ccccc3Oc3ccccc32)cc1`: the emission maximum came out at 524 nm.

Staying with this data set, now noted: in CC#N.
`Oc1ccc2ccccc2c1-c1nc(-c2ccccc2)c2ccccn12` registered an emission maximum of 435 nm.

Molecule `CC(C)CCCCN1CCc2c1ccc1c3c(ccc21)CCCC3=O` showed an emission maximum of 625 nm.

`Cc1ccc(-c2nc3c([nH]2)C2=CC(=O)S[C@]2(C)[C@@]2(C)SC(=O)C=C32)cc1` registered an emission maximum of 520 nm.

`CN(C)CCNCc1c2ccccc2cc2ccccc12` displayed an emission maximum of 389 nm.

In turn, `CNCCCN1c2ccccc2CCc2ccccc21` gave an emission maximum of 348 nm.

`c1ccc2c(c1)nc1ccccn12` gave an emission maximum of 414 nm.

In turn, `c1ccc(-c2nn(-c3ccccc3)c3nc4ccc(N(c5ccccc5)c5ccccc5)cc4cc23)cc1` registered an emission maximum of 570.78 nm.

For `C(/C=C/c1ccc(-n2c3ccccc3c3ccccc32)cc1)=C\c1ccncc1`, the emission maximum is 492 nm.

Molecule `CCN(CC)c1ccc2cc(/C=C/C(=O)/C=C(O)/C=C/c3cc4ccc(N(CC)CC)cc4oc3=O)c(=O)oc2c1` gave an emission maximum of 609 nm.

`COc1ccc(-c2csc(/C(C#N)=C\Nc3ccc(C#N)cc3)n2)cc1` gave an emission maximum of 451 nm.

In the case of `CCCSc1ccc2n1[B-](F)(F)[N+]1=C(SC#N)C=CC1=C2c1ccccc1`, the emission maximum was 567 nm.

The same data set, now with this note: in CC(C)=O.
`CN(C)CCNCc1c2ccccc2cc2ccccc12` gave an emission maximum of 387 nm.

`Nc1ccc(C#Cc2ccc3ccc4ccc(C#Cc5ccc(N)cc5)c5ccc2c3c45)cc1` returned an emission maximum of 538 nm.

Regarding `c1ccc(-c2nn(-c3ccccc3)c3nc4ccc(N(c5ccccc5)c5ccccc5)cc4cc23)cc1`, the emission maximum is 551.27 nm.

In turn, `CCN(CC)c1ccc2cc(/C=C/C(=O)/C=C(O)/C=C/c3cc4ccc(N(CC)CC)cc4oc3=O)c(=O)oc2c1` yielded an emission maximum of 598 nm.

`CN(C)c1ccc(C#Cc2ccc3ccc4ccc(C#Cc5ccc(N(C)C)cc5)c5ccc2c3c45)cc1` returned an emission maximum of 570.9 nm.

`O=S(=O)(c1ccc(N2c3ccccc3Oc3ccccc32)cc1)c1ccc(N2c3ccccc3Oc3ccccc32)cc1` came in with an emission maximum of 577 nm.

The same data set, now with this note: in CC(C)O.
`CC(C)CCCCN1CCc2c1ccc1c3c(ccc21)CCCC3=O` registered an emission maximum of 637 nm.

The same data set, now with this note: in CCC(C)=O.
Molecule `CC(C)CCCCN1CCc2c1ccc1c3c(ccc21)CCCC3=O` showed an emission maximum of 612 nm.

Staying with this data set, now noted: in CCCCCC.
`Nc1ccc(C#Cc2ccc3ccc4ccc(C#Cc5ccc(N)cc5)c5ccc2c3c45)cc1` registered an emission maximum of 444 nm.

On to `CCCSc1ccc2n1[B-](F)(F)[N+]1=C(SC#N)C=CC1=C2c1ccccc1`, for which the emission maximum worked out at 568 nm.

`CN(C)c1ccc(C#Cc2ccc3ccc4ccc(C#Cc5ccc(N(C)C)cc5)c5ccc2c3c45)cc1`: the emission maximum amounted to 459 nm.

Still in this data set, the particulars now being: in CCCCCCC.
`C(/C=C/c1ccc(-n2c3ccccc3c3ccccc32)cc1)=C\c1ccncc1`: the emission maximum worked out at 382 nm.

Still in this data set, the particulars now being: in CCCCCCO.
`Nc1ccc(C#Cc2ccc3ccc4ccc(C#Cc5ccc(N)cc5)c5ccc2c3c45)cc1` yielded an emission maximum of 534 nm.

`CN(C)c1ccc(C#Cc2ccc3ccc4ccc(C#Cc5ccc(N(C)C)cc5)c5ccc2c3c45)cc1` registered an emission maximum of 531.8 nm.

The data set is the same for the next values; noted with them: in CCCCCl.
`c1ccc(-c2nn(-c3ccccc3)c3nc4ccc(N(c5ccccc5)c5ccccc5)cc4cc23)cc1` yielded an emission maximum of 516 nm.

Staying with this data set, now noted: in CCCCOCCCC
The molecule `c1ccc(-c2nn(-c3ccccc3)c3nc4ccc(N(c5ccccc5)c5ccccc5)cc4cc23)cc1` displayed an emission maximum of 498.75 nm.

Still in this data set, the particulars now being: in CCO.
`CC(C)CCCCN1CCc2c1ccc1c3c(ccc21)CCCC3=O` registered an emission maximum of 539 nm.

In turn, `CN(C)CCNCc1c2ccccc2cc2ccccc12` showed an emission maximum of 410 nm.

Turning to `Nc1ccc(C#Cc2ccc3ccc4ccc(C#Cc5ccc(N)cc5)c5ccc2c3c45)cc1`, the emission maximum was 540 nm.

The molecule `COc1ccc(-c2csc(/C(C#N)=C\Nc3ccc(C#N)cc3)n2)cc1` registered an emission maximum of 444 nm.

For the molecule `CN(C)c1ccc(C#Cc2ccc3ccc4ccc(C#Cc5ccc(N(C)C)cc5)c5ccc2c3c45)cc1`, the emission maximum is 543 nm.

Still in this data set, the particulars now being: in CCOC(C)=O.
In turn, `CC(C)CCCCN1CCc2c1ccc1c3c(ccc21)CCCC3=O` registered an emission maximum of 586 nm.

Regarding `Nc1ccc(C#Cc2ccc3ccc4ccc(C#Cc5ccc(N)cc5)c5ccc2c3c45)cc1`, the emission maximum was determined as 506 nm.

Turning to `CCN(CC)c1ccc2cc(/C=C/C(=O)/C=C(O)/C=C/c3cc4ccc(N(CC)CC)cc4oc3=O)c(=O)oc2c1`, the emission maximum came out at 566 nm.

For the molecule `CCCSc1ccc2n1[B-](F)(F)[N+]1=C(SC#N)C=CC1=C2c1ccccc1`, the emission maximum amounted to 567 nm.

In the case of `CN(C)c1ccc(C#Cc2ccc3ccc4ccc(C#Cc5ccc(N(C)C)cc5)c5ccc2c3c45)cc1`, the emission maximum was 529.9 nm.

Still in this data set, the particulars now being: in CN(C)C=O.
`CN(C)CCNCc1c2ccccc2cc2ccccc12`: the emission maximum was 414 nm.
